The results in this text go back to patent publication US20230024384A1, “C[…] COMPOUND FOR TREATING FRAGILE X SYNDROME OR RELATED DEVELOPMENTAL DISORDERS” (NEUROVENTI, priority 2020, published 2023).

Assay type in all cases: in vivo, mouse
Assay [1] relates to Fmr1-deficient animal model (fragile X syndrome). The assay is described as follows: home-cage test in Fmr1-deficient animal model. The settings on record: Fmr1 KO mice, lisuride once daily for 5 days, sniffing measured for 15 minutes, FIG. 2. On the procedure:
(§1) Purchased a 5-week-old Fmr1 knockout mouse (Jackson Laboratory, USA) weighing about 22 g to 24 g, and acclimatized to an environment with a temperature of 23±2° C. and humidity of 55±10% and a light-dark cycle of 12 hours while allowing them to freely consume water and feed (Experimental Animal Center, Konkuk University). As experimental animals, wild-type (WT) with normal FMRP expression and male KO mice lacking FMRP (fragile X mental retardation protein) expression (fragile X syndrome; FXS) were used. Dosing and experiments were performed according to the age of the week. Dosing was performed at the same time. Behavioral experiments were conducted 30 minutes after administration. […] Meanwhile, 0.25 (v/v) % DMSO was intraperitoneally administered to the control group.
A home-cage test evaluates sociability in the breeding cage removing the possible confounders of stress due to abrupt changes in the environment. After raising the group of animals to be tested together, a wire cage was placed inside the home cage and allowed the animals to acclimatize for 30 minutes. A stimulus mouse was placed in a wire cage and the duration of sniffing by the subject mice to the wire cage was measured for 15 minutes.

The test system is the same in assay [2]. Nature of the assay: pre-pulse (pre-wave) suppression test in Fmr1-deficient animal model. The settings on record: Fmr1 KO mice, lisuride intraperitoneally, FIG. 3. Here is the method:
as §1
The startle response was confirmed using an Fmr1-deficient animal model. […] Thereafter, sensorimotor gating was evaluated through a pre-wave suppression test (converted using Equation 1 below).
(§2) Pre-pulse suppression (%)=100−[(startle response to pre-stimulus+stimulus)/(start-up response to stimulus)]*100 [Equation 1]

Assay [3] has as its system animal model treated with MK-801 in wild-type mice. The assay is described as follows: pre-wave suppression test in MK-801-treated wild-type mice. The settings on record: lisuride intraperitoneally after MK-801, FIG. 6. Here is the method:
as §2
(§3) Startle response was confirmed in an animal model treated with apomorphine or MK-801 in wild-type mice. […] Thereafter, sensorimotor gating was evaluated through a pre-wave suppression test (converted using Equation 1 above).

The subject of assay [4] is animal model treated with apomorphine in wild-type mice. Nature of the assay: pre-wave suppression test in apomorphine-treated wild-type mice. The settings on record: lisuride intraperitoneally after apomorphine, FIG. 5. Here is the method:
as §2, §3

Assay [5] has as its system Fmr1-deficient animal model (fragile X syndrome). Nature of the assay: three-chamber test in Fmr1-deficient animal model. The settings on record: Fmr1 KO mice, lisuride intraperitoneally 50 ug/kg, test 30 minutes after administration, FIG. 1. Here is the method: as §1
If the animal model spent more time with a novel mouse rather than a familiar mouse, it is judged to be social. The test animal was exposed to the stimulus mouse for 10 minutes, and to a new stimulus mouse (novel) for another 10 minutes. In this case, the old mouse is called familiar and the new mouse is called a novel mouse. The time the test mouse explored each stimulus mouse was measured and expressed as %. As a result of the experiment, it was confirmed that the wild type spent more time with the novel mouse than the familiar mouse, indicating normal sociability. […]

As for `CCN(CC)C(=O)N[C@H]1C=C2c3cccc4[nH]cc(c34)C[C@H]2N(C)C1` [lisuride, 1,1-Diethyl-3-(7-methyl-4,6,6a,7,8,9-hexahydro-indolo [4,3-fg]quinolin-9-yl)-urea], the “sniffing time to wire cage with stimulus mouse (sociability)” value in assay [1] is on record as “sniffing time increased again”. The “pre-pulse suppression (sensorimotor gating)” value in assay [2], in assay [3] and in assay [4] was “pre-pulse suppression was restored” throughout. In assay [5], the “sociability: time spent with novel mouse versus familiar mouse” value is recorded as “more time was spent with the novel mouse than with the familiar mouse”.
